In patent publication US20030017567A1, “Biological sample processing methods and compositions that include surfactants” (3M Innovative Properties Company, priority 2001, published 2003):
Marks after values point to notes of the source that are not given here.

Legend:
[1] = biological target: T1, AMPLITAQ DNA polymerase (Taq polymerase) (Thermus aquaticus, UniProt P19821); test: PCR amplification of PERV protease fragment (327 bp) in presence of dye/surfactant; product on agarose gel or quantitated with Agilent 2100 Bioanalyzer; assay type: biochemical; settings: for effect of dye on PCR (Example 6): dye at typical concentrations of 0.1 or 0.2 mg/mL, without surfactant, agarose gel
T1 construct: purchased Applied Biosystems, Foster City, Calif
T1 sequence (P19821 whole entry, the tested form may be a part): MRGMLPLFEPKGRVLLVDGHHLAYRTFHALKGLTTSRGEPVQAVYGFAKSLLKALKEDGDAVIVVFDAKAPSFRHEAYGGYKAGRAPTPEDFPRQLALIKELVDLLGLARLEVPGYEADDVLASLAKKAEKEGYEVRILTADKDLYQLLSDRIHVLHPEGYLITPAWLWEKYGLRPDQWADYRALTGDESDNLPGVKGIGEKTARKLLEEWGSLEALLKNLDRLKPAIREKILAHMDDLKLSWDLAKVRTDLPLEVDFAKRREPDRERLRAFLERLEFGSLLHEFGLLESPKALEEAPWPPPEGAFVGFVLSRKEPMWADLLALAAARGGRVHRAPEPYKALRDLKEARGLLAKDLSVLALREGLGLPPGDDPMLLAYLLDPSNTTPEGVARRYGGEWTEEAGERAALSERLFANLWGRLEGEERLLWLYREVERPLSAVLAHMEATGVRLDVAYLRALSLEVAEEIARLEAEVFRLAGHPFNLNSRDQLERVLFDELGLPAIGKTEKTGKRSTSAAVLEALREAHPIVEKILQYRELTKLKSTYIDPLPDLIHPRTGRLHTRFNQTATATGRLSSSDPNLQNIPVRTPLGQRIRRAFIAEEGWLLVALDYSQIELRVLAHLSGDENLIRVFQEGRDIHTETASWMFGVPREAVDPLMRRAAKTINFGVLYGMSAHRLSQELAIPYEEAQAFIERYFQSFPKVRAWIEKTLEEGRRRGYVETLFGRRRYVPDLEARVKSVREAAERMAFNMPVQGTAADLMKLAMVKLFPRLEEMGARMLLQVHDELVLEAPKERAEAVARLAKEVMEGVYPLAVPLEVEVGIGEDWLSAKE
Method: Typically, a fresh stock solution of 5 milligrams (mg) of a water-insoluble near-infrared dye (NIR dye) was dissolved in 50 microliters (μL) of dimethylsulfoxide (DMSO) and brought up in water to a final volume of 1 milliliter (mL). This was then diluted out to various concentrations of dye. The diluted dye (typically 0.2 mg/mL) was then added to a surfactant solution (typically 4 wt-%) to form a complex. The complex was added to a PCR reaction.
PCR reactions were set up for a conserved sequence (327 bp) in the protease region of the genome of porcine endogenous retrovirus using a plasmid containing the PERV protease fragment, a forward primer and a reverse primer designed using a primer express program from Applied Biosystems, and AMPLITAQ DNA polymerase cocktail (commercially available from Applied Biosystems, Foster City, Calif.) and cycled in a thermocycler (9700, Applied Biosystems). The PCR reactions were typically carried out in 25-μL volumes. The NIR dye/surfactant mixture was added to the PCR cocktail to give the desired concentration of dye and surfactant in a total volume of 25 μL. A typical PCR cocktail contains 10x buffer, 2.5 μL; dNTPs, 2.0 μL (200 μM of each); forward primer, 0.5 μL (200 nM); reverse primer, 0.5 μL (200 nM); template DNA, 1.0 (1 ng/μL); Amplitaq, 0.25 μL (1.25 units); sterile water, 18.25 μL.
The products of PCR reactions were run on 1% agarose gel containing ethidium bromide and visualized using an ALPHA IMAGER (Alpha Innotech Corp., San Leandro, Calif.). […] However, a higher concentration of dye (0.1 mg/mL) for effective heating was needed. Thus, for all further PCR experiments, a dye concentration of 0.1 mg/mL or higher was used. […] Taq polymerase was tested from different manufacturers (Promega Corp., Madison, Wis.; Roche Biochemicals, Indianapolis, Ind.; Eppendorf, Scientific Inc., Westbury, N.Y.; Sigma, St. Louis, Mo.) and all the Taq polymerases were inhibited by 785 WS and SDA 8080.
In order to find out the optimum concentration of surfactant for PCR with NIR dye (785 WS and SDA 8080), the surfactant concentration in PCR reaction was varied from 0.1 wt-% to 4 wt-%. The PCR product formed was quantitated using DNA 7500 Labchip kit in Agilent 2100 Bioanalyzer (Agilent Inc, Paloalto, Calif.). The results shown in Table 3 indicate that increasing the concentration of surfactant relative to dye assists in the formation of PCR product.
A variety of dyes (NIR dyes such as IR782, IR768, SDA 2141, SDA8327, IR 830 WS, fluorescent dyes like oligreen and visible dyes like dichlorophenol, indophenol, saffranin, crystal violet, and commercially available food coloring) at typical concentrations of 0.1 or 0.2 mg/mL were allowed to interact with 4 wt-% PLURONIC F127 and each mixture was added to the PCR cocktail. The reaction was set up to amplify PERV protease fragment as described in Example 2 and the products of the reaction were analyzed by agarose gel electrophoresis.

[2] = Laser stability / photobleaching of dye solution on repeated laser exposure; assay type: physicochemical; settings: for Laser Stability: 25 exposures
Method: An 813-nm diode laser source at 1.2W (1.9A) (Opto Power Corp., Tucson, Ariz. ) was used to heat a 10μL volume of near-IR dye at a concentration (0.1 mg/mL for 785 WS, 0.2 mg/iL for SDA 8080) to yield a 35° C. rise in temperature. The laser was manually turned on long enough for the temperature in a 10-μL well to increase by 35° C. (1-3 seconds) and was manually turned off when that level was attained. The temperature data was obtained using a thermocouple in the well, and the transmittance data was obtained via a power meter whose signals were digitized and graphically interpreted.
In another experiment, the 10 μL well was used to see if the dye/surfactant mixture could withstand laser cycling over a period of 30 cycles. The laser power was systematically varied from 60° C. to 94° C., 30 times.
Unlike in Example 8, some dyes and dye/surfactant complexes undergo photodegradation when exposed to laser beam. […] Specifically, in the case of 785 WS/BRIJ-97, the addition of ascorbic acid (typically 5 mg/mL) helped reduce the amount of photobleaching from 100% to 20% after 30 cycles. In some circumstances, rapid/controlled photodegradation may be desired. […] This would allow DNA tags (fluorescent or vis/IR) to be monitored at the end of the PCR reaction.
Vitamin E-TPGS has both surfactant as well as antioxidant properties.

[3] = Thermal degradation of dye: absorbance at beginning and end of thermal cycling; assay type: physicochemical
From the text: The dyes SDA 8080 and 785 WS were mixed with a variety of surfactants such as PLURONIC F-127, TWEEN-20, TRITON X-100, NP-40, BRIJ-97 and cycled in a thermocycler (9700, Applied Biosystems). Absorbance readings were taken at the beginning and end of thermal cycling using HP Chem Station (HP 8453, Agilent Technologies, Palo Alto, Calif.) at 785 nm for the 785 WS dye and 1040 nm for the SDA 8080 dye. […] Thus, the surfactant helps to protect thermal degradation of the dye.

[4] = 785 WS 0.1 mg/mL, surfactant 0.1 wt %
[5] = 785 WS 0.1 mg/mL, surfactant 0.5 wt %
[6] = 785 WS 0.1 mg/mL, surfactant 1 wt %
[7] = 785 WS 0.1 mg/mL, surfactant 2 wt %
[8] = 785 WS 0.1 mg/mL, surfactant 4 wt %
[9] = SDA 8080 0.2 mg/mL, surfactant 0.1 wt %
[10] = SDA 8080 0.2 mg/mL, surfactant 0.5 wt %
[11] = SDA 8080 0.2 mg/mL, surfactant 1 wt %
[12] = SDA 8080 0.2 mg/mL, surfactant 2 wt %
[13] = SDA 8080 0.2 mg/mL, surfactant 4 wt %
[14] = 785 WS (0.1 mg/mL), surfactant 0.5 wt %, absorbance at 785 nm
[15] = 785 WS (0.1 mg/mL), surfactant 2 wt %, absorbance at 785 nm
[16] = 785 WS (0.1 mg/mL), surfactant 4 wt %, absorbance at 785 nm
[17] = SDA 8080 (0.2 mg/mL), surfactant 0.5 wt %, absorbance at 1040 nm
[18] = SDA 8080 (0.2 mg/mL), surfactant 2 wt %, absorbance at 1040 nm
[19] = SDA 8080 (0.2 mg/mL), surfactant 4 wt %, absorbance at 1040 nm
[20] = 785 WS (0.1 mg/mL), surfactant 20 wt %, * can be made laser stable after addition of antioxidant
[21] = SDA 8080 (0.2 mg/mL), surfactant 20 wt %
[22] = surfactant 4 wt %, 785 WS 0 mg/mL (no dye), data from a different experiment under identical PCR conditions
[23] = surfactant 4 wt %, SDA 8080 0 mg/mL (no dye), data from a different experiment under identical PCR conditions
[24] = 785 WS (0.1 mg/mL), surfactant 0.1 wt %, absorbance at 785 nm
[25] = SDA 8080 (0.2 mg/mL), surfactant 0.1 wt %, absorbance at 1040 nm

| Molecule | effect of dye on PCR (Example 6) [1] | PCR Product [1, 4] | PCR Product [1, 5] | PCR Product [1, 6] | PCR Product [1, 7] | PCR Product [1, 8] | PCR Product [1, 10] | PCR Product [1, 11] | PCR Product [1, 12] | PCR Product [1, 13] | Thermal Degradation [3, 16] | Thermal Degradation [3, 19] | also measured |
| --- | --- | --- | --- | --- | --- | --- | --- | --- | --- | --- | --- | --- | --- |
| dichlorophenol | inhibited PCR | – | – | – | – | – | – | – | – | – | – | – | – |
| CN(C)c1ccc(C(=C2C=CC(=[N+](C)C)C=C2)c2ccc(N(C)C)cc2)cc1 [crystal violet] | inhibited PCR | – | – | – | – | – | – | – | – | – | – | – | – |
| O=C1O[C@H]([C@@H](O)CO)C(O)=C1O [ascorbic acid] | – | – | – | – | – | – | – | – | – | – | – | – | effect of antioxidant on photobleaching of 785 WS ([2]; added to virtually any of the surfactants tested with 785 WS): reduced photobleaching significantly |
| Polyoxyethylene (10) oleyl ether [BRIJ 97] | – | 0 ng/µL | 0 ng/µL | 0 ng/µL | 13.8 ng/µL | 21.9 ng/µL | 19.3 ng/µL | 23.5 ng/µL | 25.5 ng/µL | 22.6 ng/µL | 96.0% | 6.0% | PCR Product [1, 9]: 18.7 ng/µL; Thermal Degradation ([3]; 785 WS (0.1 mg/mL), surfactant 0.01 wt %, absorbance at 785 nm): 79.0%; Thermal Degradation [3, 14]: 95.0%; Thermal Degradation ([3]; 785 WS (0.1 mg/mL), surfactant 1 wt %, absorbance at 785 nm): 94.5%; Thermal Degradation [3, 15]: 94.5%; Thermal Degradation ([3]; SDA 8080 (0.2 mg/mL), surfactant 0.01 wt %, absorbance at 1040 nm): 86.2%; Thermal Degradation [3, 17]: 67.7%; Thermal Degradation ([3]; SDA 8080 (0.2 mg/mL), surfactant 1 wt %, absorbance at 1040 nm): 50.0%; Thermal Degradation [3, 18]: 29.4%; Laser Stability [2, 20]: −* (greater than 20% degradation in dye absorbance over a period of 25 exposures); Laser Stability [2, 21]: + (less than a 20% degradation in dye absorbance over a period of 25 exposures) |
| Octyl phenoxy polyethoxyethanol [TRITON X-100] | – | 0 ng/µL | 0.1 ng/µL | 0.4 ng/µL | 2.2 ng/µL | 1.3 ng/µL | 2.3 ng/µL | 1.4 ng/µL | 1.9 ng/µL | 1.1 ng/µL | 4.6% | 0.0% | PCR Product [1, 9]: 0 ng/µL; PCR Product [1, 22]: 23.8* ng/μL; PCR Product [1, 23]: 23.8* ng/μL; Thermal Degradation [3, 24]: 24.8%; Thermal Degradation [3, 25]: 76.0%; Thermal Degradation ([3]; SDA 8080 (0.2 mg/mL), surfactant 20 wt %, absorbance at 1040 nm): 7.1%; Laser Stability [2, 20]: −* (greater than 20% degradation in dye absorbance over a period of 25 exposures); Laser Stability [2, 21]: + (less than a 20% degradation in dye absorbance over a period of 25 exposures) |
| Cc1cc2nc3cc(C)c(N)cc3[n+](-c3ccccc3)c2cc1N.[Cl-] [saffranin] | inhibited PCR | – | – | – | – | – | – | – | – | – | – | – | – |
| Nonyl phenoxy poly (ethyleneoxy) ethanol [NP-40] | – | 0 ng/µL | 0 ng/µL | 0 ng/µL | 0.3 ng/µL | 3.8 ng/µL | 23.3 ng/µL | 23.7 ng/µL | 17.2 ng/µL | 18 ng/µL | 27.4% | 48.8% | PCR Product ([1]; SDA 8080 0.1 mg/mL, surfactant 0.1 wt %): 0 ng/µL; PCR Product [1, 22]: 24.2* ng/μL; PCR Product [1, 23]: 24.2* ng/μL; Thermal Degradation [3, 24]: 20.2%; Thermal Degradation [3, 25]: 82.1% |
| d-Alpha tocopheryl polyethylene glycol 1000 [Vitamin E TPGS] | – | – | – | – | – | – | – | – | – | – | 5.3% | 92.3% | Thermal Degradation [3, 14]: 6.5%; Thermal Degradation [3, 15]: 4.0%; Thermal Degradation [3, 17]: 89.5%; Thermal Degradation [3, 18]: 88.9%; Laser Stability ([2]; 785 WS (0.1 mg/mL), surfactant 4 wt %, * can be made laser stable after addition of antioxidant): + (less than a 20% degradation in dye absorbance over a period of 25 exposures); light stability ([2]; Vitamin E-TPGS 4 wt-% added to 785 WS 0.1 mg/mL, after 30 cycles of laser exposure): significantly increased |
